From ChEMBL document CHEMBL4602614, “Design, synthesis and cholinesterase inhibitory activity of novel spiropyrrolidine tethered imidazole heterocyclic hybrids” (Bioorg Med Chem Lett, 2020)

Assays:
Acetylcholinesterase = Acetylcholinesterase (Homo sapiens, UniProt P22303); test: Inhibition of AChE (unknown origin)
Cholinesterase = Cholinesterase (Homo sapiens, UniProt P06276); test: Inhibition of BChE (unknown origin)
Sequence of Cholinesterase (P06276 whole entry): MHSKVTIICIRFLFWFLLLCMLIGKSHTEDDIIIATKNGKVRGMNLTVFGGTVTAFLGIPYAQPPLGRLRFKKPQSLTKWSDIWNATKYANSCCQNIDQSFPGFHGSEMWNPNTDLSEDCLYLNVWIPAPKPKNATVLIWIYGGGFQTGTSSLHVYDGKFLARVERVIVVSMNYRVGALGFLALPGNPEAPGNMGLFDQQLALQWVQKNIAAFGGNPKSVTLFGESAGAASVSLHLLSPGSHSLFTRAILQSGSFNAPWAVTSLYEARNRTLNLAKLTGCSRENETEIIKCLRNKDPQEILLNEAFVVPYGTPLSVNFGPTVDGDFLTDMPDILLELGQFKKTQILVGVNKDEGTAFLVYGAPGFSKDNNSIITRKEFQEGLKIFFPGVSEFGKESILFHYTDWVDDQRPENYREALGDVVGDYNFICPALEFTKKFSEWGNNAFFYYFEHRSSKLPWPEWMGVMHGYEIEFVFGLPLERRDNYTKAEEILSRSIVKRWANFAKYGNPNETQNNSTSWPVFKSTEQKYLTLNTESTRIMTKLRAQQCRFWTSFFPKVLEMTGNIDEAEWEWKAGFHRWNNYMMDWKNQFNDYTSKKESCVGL

Sequence of Acetylcholinesterase (P22303 whole entry): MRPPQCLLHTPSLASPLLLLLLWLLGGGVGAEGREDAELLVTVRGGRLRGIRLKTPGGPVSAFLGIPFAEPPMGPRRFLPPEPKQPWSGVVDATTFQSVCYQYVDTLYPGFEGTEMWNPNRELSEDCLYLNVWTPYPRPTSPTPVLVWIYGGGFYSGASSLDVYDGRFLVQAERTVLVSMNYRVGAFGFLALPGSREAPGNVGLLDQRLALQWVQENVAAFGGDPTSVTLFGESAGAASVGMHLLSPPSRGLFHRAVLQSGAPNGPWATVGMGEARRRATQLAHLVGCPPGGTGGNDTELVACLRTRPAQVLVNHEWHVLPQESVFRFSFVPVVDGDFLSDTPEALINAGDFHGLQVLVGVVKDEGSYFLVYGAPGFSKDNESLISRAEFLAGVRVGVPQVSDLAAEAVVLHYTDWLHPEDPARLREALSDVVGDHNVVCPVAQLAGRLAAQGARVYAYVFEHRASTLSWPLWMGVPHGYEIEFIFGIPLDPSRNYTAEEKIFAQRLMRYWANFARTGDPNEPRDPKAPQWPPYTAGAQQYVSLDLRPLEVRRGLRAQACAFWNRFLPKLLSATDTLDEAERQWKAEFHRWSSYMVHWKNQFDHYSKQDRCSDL

## O=[N+]([O-])C1C(Cc2c[nH]cn2)NC2(c3ccccc3-c3nc4ccccc4nc32)C1c1ccc(Cl)cc1 (configuration not stated)
Acetylcholinesterase
  IC50: 18.2 µM
Cholinesterase
  IC50: 21.6 µM

## Cc1ccccc1C1C([N+](=O)[O-])C(Cc2c[nH]cn2)NC12c1ccccc1-c1nc3ccccc3nc12 (configuration not stated)
Acetylcholinesterase
  IC50: 10 µM
Cholinesterase
  IC50: 13.8 µM

## Cc1cccc(C2C([N+](=O)[O-])C(Cc3c[nH]cn3)NC23c2ccccc2-c2nc4ccccc4nc23)c1 (configuration not stated)
Acetylcholinesterase
  IC50: 7.8 µM
Cholinesterase
  IC50: 13.6 µM

## Cc1ccc(C2C([N+](=O)[O-])C(Cc3c[nH]cn3)NC23c2ccccc2-c2nc4ccccc4nc23)cc1 (configuration not stated)
Acetylcholinesterase
  IC50: 2.02 µM
Cholinesterase
  IC50: 12.4 µM

## COc1ccccc1C1C([N+](=O)[O-])C(Cc2c[nH]cn2)NC12c1ccccc1-c1nc3ccccc3nc12 (configuration not stated)
Acetylcholinesterase
  IC50: 5.22 µM
Cholinesterase
  IC50: 14.2 µM

## O=[N+]([O-])C1C(Cc2c[nH]cn2)NC2(c3ccccc3-c3nc4ccccc4nc32)C1c1ccccn1 (configuration not stated)
Acetylcholinesterase
  IC50: 17 µM
Cholinesterase
  IC50: 24.3 µM

## O=[N+]([O-])C1C(Cc2c[nH]cn2)NC2(c3ccccc3-c3nc4ccccc4nc32)C1c1ccccc1 (configuration not stated)
Acetylcholinesterase
  IC50: 11.8 µM
Cholinesterase
  IC50: 15.6 µM

## COc1cccc(C2C([N+](=O)[O-])C(Cc3c[nH]cn3)NC23c2ccccc2-c2nc4ccccc4nc23)c1 (configuration not stated)
Acetylcholinesterase
  IC50: 9.2 µM
Cholinesterase
  IC50: 14.7 µM

## O=[N+]([O-])C1C(Cc2c[nH]cn2)NC2(c3ccccc3-c3nc4ccccc4nc32)C1c1ccco1 (configuration not stated)
Acetylcholinesterase
  IC50: 14.2 µM
Cholinesterase
  IC50: 22.3 µM

## O=[N+]([O-])C1C(Cc2c[nH]cn2)NC2(c3ccccc3-c3nc4ccccc4nc32)C1c1ccc(Br)cc1 (configuration not stated)
Acetylcholinesterase
  IC50: 16.2 µM
Cholinesterase
  IC50: 26.6 µM

## COc1ccc(C2C([N+](=O)[O-])C(Cc3c[nH]cn3)NC23c2ccccc2-c2nc4ccccc4nc23)cc1 (configuration not stated)
Acetylcholinesterase
  IC50: 2.05 µM
Cholinesterase
  IC50: 11.5 µM
